Measured values reported in US12194080B2, “Methods for identification, assessment, prevention, and treatment of metabolic disorders using PM20D1 and N-lipidated amino acids” (Dana-Farber Cancer Institute, Inc., priority 2015, dated 2025).

Assays:
BAT mitochondria = test: Respiration of isolated crude BAT mitochondria; format: biochemical, mouse; conditions: 10-100 μM; 10 mM pyruvate and 5 mM malate as substrates
Description: BAT pads from ten 6-12 week old male mice were harvested and minced on ice in isolation buffer (250 mM sucrose, 5 mM HEPES, and 1 mM EGTA) supplemented with 2% fatty acid-free BSA (Sigma). The tissue was then homogenized in a Teflon homogenizer and centrifuged (8,500×g, 10 min, 4° C.). The supernatant was discarded, the pellet was re-suspended in 20 ml isolation buffer supplemented with 1% fatty acid-free BSA, and centrifuged (700×g, 10 min, 4° C.). The supernatant was centrifuged one final time (8,500×g, 10 min, 4° C.). The pellet was re-suspended in isolation buffer supplemented with 1% fatty acid-free BSA (200 μl) to yield crude BAT mitochondria at 50-80 mg/ml. For respiration measurements, BAT mitochondria were diluted to in mitochondria respiration buffer (5 mM KCl, 4 mM KH2PO4, 5 mM HEPES, 1 mM EGTA, 1% fatty acid free BSA, 10 mM pyruvate, 5 mM malate, and 1 mM GDP) and plated at 15 μg/well (50 μl total volume) in an XF24 cell culture microplate. The plate was centrifuged (1000×g, 20 min, 4° C.), additional pre-warmed mitochondrial respiration buffer was added (450 μl), and respiration was measured on a XF24 Extracellular Flux Analyzer. The Seahorse program was run as follows: basal measurement, 2 cycles; inject port A (compounds), 1 cycle, inject port B (FCCP), 1 cycle, inject port C (rotenone), 1 cycle. Each cycle consisted of mix 0.5 min, wait 0 min, measure 2 min. […]

[1] = tested on: primary inguinal fat cells, primary BAT cells, C2C12 cells, and U2OS cells; test: Uncoupled respiration cellular assays (variety of cell types); format: cell-based; conditions: N-acyl amino acids at 10-100 uM

`CCCCCCCC/C=C\CCCCCCCC(=O)N[C@@H](Cc1ccccc1)C(=O)O` [C18:1-Phe, Oleoyl-L-phenylalanine] was tested, and the “respiration of isolated mitochondria” value (BAT mitochondria) was “increased respiration in a dose-dependent manner” and the “uncoupled respiration in cells” value [1] was “increased uncoupled respiration”.
